Measured values taken from patent US20100168228A1, “NOVEL CHEMOTHERAPEUTIC AGENTS AGAINST INFLAMMATION AND CANCER” (RELIANCE LIFE SCIENCES PVT. LTD., priority 2006, published 2010).

Experiments:
Assay type in all cases: cell-based, human
[1] = system: caspase 3; assay: Caspase 3 activity assay, Jurkat lysates; settings: 16 and 24 h exposure
Description: FIG. 14: Induction of Caspase 3 by compound 27. Jurkat cells were treated with indicated concentrations of the compound for 16 and 24 h and harvested in lysis buffer. Cellular lysates were incubated with Ac-DEVD-pNA as described in the “Materials and Methods” for 2 h at 37° C. Absorbance was recorded at 405 nm.
Caspase 3 activity assay: To evaluate caspase 3 activity, cell lysates were prepared after their respective treatments with the compounds. 200 μg of the cell lysates were incubated with 50 μM caspase 3 substrate […] in 100 μl reaction buffer (1% NP-40, […] tris-HCl, pH7.5, 137 mM NaCl, and 10% glycerol) and incubated for 2 h at 37° C. The release of chromophore pNA was monitored spectrophotometrically at 405 nm.

[2] = system: Cyclin D1; assay: Cyclin D1 mRNA, semi-quantitative RT-PCR; settings: various concentrations
Description: FIG. 10: Effect of CAMVE on Cell Cycle distribution. A. 5×10^5 cells were treated with indicated concentrations of CAMVE as indicated and cell cycle analyses were performed using Flow Cytometry as described in the “Materials and Methods”. The percentage of cells in G1, S, and G2-M phase were calculated using Cell Quest analysis software and are represented within the histograms. The data shown here are from a representative experiment repeated three times with similar results. B. Expression of human Cyclin D1, was assayed by semi quantitative RT-PCR analysis with GAPDH as internal control. […]
Total RNA was isolated using the standard TRIzol method (Gibco BRL). Briefly, 3×10^6 cells were treated with different concentrations of the compounds as indicated in the legends to Figures and after harvesting the cell pellet was resuspended in 1 ml of TRIzol with repeated pipetting. The homogenized sample was incubated at RT for 5 min to permit complete dissociation of the nucleoprotein complexes. 200 μl of chloroform was added and the tubes were shaken vigorously for 15 sec by hand and then incubated at RT for 3 mins. The samples were then centrifuged at 10,000 RPM for 15 mins at 4° C. […]
Changes in gene expression were verified by semi-quantitative RT-PCR using GAPDH as an internal normalization standard. 1 μg of total RNA (quantified by spectrophotometer) was used to reverse transcribe into cDNA. […]

[3] = system: Jurkat cells; assay: Lipid peroxidation, TBARS assay; settings: pretreated 3 h, TNF 1 nM 1 h
Description: Lipid peroxidation was assessed by the TBARS assay, which detects mainly malondialdehyde (MDA), a product of the peroxidation of polyunsaturated fatty acids and related esters. TBARS were measured by a modification of the method described previously, (Ohkawa et al., Anal. Biochem. 95:351-358. (1979)). Jurkat cells, 6×10^6 cells in 2 ml were pretreated with either media or different concentrations of CAMVE (as described in the Figure legends) for 3 h and then stimulated with 1 nM TNF for 1 h. Cells were washed before undergoing three cycles of freeze-thawing in 200 μl of water. A 20 μl aliquot was subsequently removed for Bradford protein determination, and 800 μl of assay mix (0.4% (w/v) thiobarbituric acid, 0.5% (w/v) SDS, 9.4% (v/v) acetic acid, pH 3.5) was added to the remaining sample. Samples were incubated for 60 min at 95° C., cooled at room temperature, and centrifuged at 14,000×g for 10 min, and the absorbance of the supernatants was read at 532 nm against a standard curve prepared using the MDA standard (10 mM 1,1,3,3-tetramethoxypropane in 20 mM Tris-HCL, pH 7.4). Results were calculated as nmol of MDA equivalents/mg of protein and expressed as a percentage of matched control values.

SMILES: COc1cc([C@@H]2Oc3c(OC)cc(/C=C/C(=O)O)cc3[C@H]2C(=O)O)ccc1O [compound 27, 5-[(E)-2-carboxyvinyl]-2β-(4-hydroxy-3-methoxyphenyl)-7-methoxy-2,3-dihydro-1-benzofuran-3α-carboxylic acid]
- caspase 3 activity (DVED-pNA cleavage) [1]: dose dependent increase in DVED-pNA cleavage

SMILES: COC(=O)c1ccc(OC(=O)/C=C/c2ccc(O)c(O)c2)c(OC)c1 [compound 1, Methyl 4-{[(2E)-3-(3,4-dihydroxyphenyl)prop-2-enoyl]oxy}-3-methoxybenzoate]
- expression of cyclin D1 m-RNA [2]: notably decreased
- TNF induced lipid peroxidation [3]: significantly suppressed by CAMVE in a dose dependent manner
